Test results as given in patent US20170003275A1, “METHOD TO IDENTIFY COMPOUNDS ABLE TO BIND TO THE ROSSMANN FOLD OF C-TERMINAL-BINDING PROTEINS, IDENTIFIED COMPOUNDS AND MEDICAL USES THEREOF” (CONSIGLIO NAZIONALE DELLE RICERCHE, priority 2013, published 2017).
Read-outs that look alike come from different tables or passages of the source.

Key:
recombinant BARS = molecular target: T1, recombinant BARS (Rattus norvegicus, UniProt Q9Z2F5); assay: NAD competition assay ([3H]-NAD+ binding to BARS, dot blot); settings: for NAD Displac. (%): 10 μM [3H]-NAD+, molecules 0.01 to 100 μM, 2 h 37° C.; for competition for the binding of NAD to BARS (selection): 0.01 to 100 μM
T1 construct: His; made in house
Description: Five μg of recombinant BARS were incubated for 2 h at 37° C. in 100 μl buffer (20 mM HEPES at pH 7.4, 25 mM NaCl and 10 μM [^3H]-NAD^+ (specific activity: 1 μCi/μmol)) in the presence of a range of concentrations (from 0.01 to 100 μM) of the molecules listed in table 1. At the end of the incubation BARS was recovered by trapping it to nitrocellulose using a Dot-Blot apparatus (Bio-Rad Laboratories, UK) according to manufacturer instruction. The samples were washed three times in ice-cold HEPES buffer (20 mM, pH 7.4). The amount of radiolabelled NAD bound to BARS was measured using a BetaImager (BioSpace Lab); the total amount of BARS bound to nitrocellulose was evaluated by red ponceau staining (Sigma-Aldrich) according to manufacturer instructions. Quantitative analyses were performed using GraphPad Prism Software.
A second virtual library was performed using the whole KEGG COMPOUND Database. […] To rank the molecules according to their affinity for BARS, the inventors set up a new assay for determining the capability of the 28 candidate molecules to compete for the binding of NAD to BARS. To this purpose, radiolabeled NAD and recombinant BARS were incubated for 2 h in the presence of a range of concentrations (from 0.01 to 100 μM) of the molecules. At the end of the incubation BARS was recovered by trapping it to nitrocellulose using a dot blot apparatus, and the radiolabelled NAD bound to BARS was evaluated by measuring the radioactivity using a BetaImager (BioSpace Lab).

[1] = test system: Zonula Occludens (ZO1), CtBP target gene; assay: Expression of CtBP target genes, Western blot of Zonula Occludens; assay type: cell-based, human; settings: HeLa; for protein levels of Zonula Occludes: 2 and 4 days, Western blot; for minimal effective concentration: minimum effective concentration, Zonula Occludens protein, read-out: CtBP target genes increase (corepressive activity inhibition) Western Blot
Description: At the end of the incubations part of the samples was analyzed by western blot. To this purpose, the samples were washed with ice-cold PBS and lysed in 100 μl of SDS sample buffer. The samples were then separated on 8% SDS-PAGE gels, transferred onto nitrocellulose, and subjected to Western blotting using an antibody against Zonula Occludens (anti ZO1; Cell Signaling N. Cat. 5406) and an antibody against GAPDH (AbD Serotec) as a reference. The anti ZO1 antibody was used at a 1:1000 dilution; the anti GAPDH antibody was used at an 1:100000 dilution. The nitrocellulose membranes were subjected to ECL (as described above). The freeware ImageJ software (http://imagej.nih.gov) was used for quantitative analysis.

HeLa cells = assay: Cell viability assay (Hoechst cell number); settings: for effect on cell viability: even at 100 microM; for 50% Viability: 0.01 to 100 μM
Description: Quantitative analyses were performed using a GraphPad Prism Software.
At the end of the incubation the cells have been fixed, stained with Hoechst to label the DNA and analysed using a fluorescence microscope for the automated images acquisition and analysis (Olympus ScaR). […] An EC50 was calculated for the remaining molecules.

[2] = Homo sapiens, 48 h, read-out: 50% Viability

| Compound | NAD Displac. (%) (recombinant BARS) | competition for the binding of NAD to BARS (selection) (recombinant BARS) | protein levels of Zonula Occludes [1] | minimal effective concentration ([1]; Homo sapiens) [µM] | effect on cell viability (HeLa cells; 48 h) | EC50 (HeLa cells; [2]) [µM] | minimal effective concentration [1] [µM] | EC50 (HeLa cells; read-out: 50% Viability, 48 h, 0.01 to 100 μM) [µM] | 50% Viability (HeLa cells; 48 h) |
| --- | --- | --- | --- | --- | --- | --- | --- | --- | --- |
| O=P(O)(O)C(O)(Cc1cccnc1)P(=O)(O)O [C26, [1-hydroxy-1-phosphono-2-(pyridin-3-yl)ethyl]phosphonic acid] | 30 | best competitors | able to increase | 1 | did not affect (or had minor effects) | > 100 | – | – | – |
| C#C[C@]1(O)CC[C@H]2[C@@H]3CCc4cc(OC5CCCC5)ccc4[C@H]3CC[C@@]21C [C19, 17alpha-Ethynylestradiol 3-cyclopentyl ether] | – | – | – | – | – | 1 | – | – | – |
| CC(=O)CC(c1ccc(Cl)cc1)c1c(O)c2ccccc2oc1=O (stereo not drawn) [C4, 3-[1-(4-chlorophenyl)-3-oxobutyl]-4-hydroxychromen-2-one] | 20 | best competitors | able to increase | 10 | did not affect (or had minor effects) | > 100 | – | – | – |
| COc1cc(C2Oc3c(O)cc(C4Oc5cc(O)cc(O)c5C(=O)C4O)cc3C2CO)ccc1O (stereo not drawn) [C17, 3beta,5,7-Trihydroxy-2alpha-[7-hydroxy-2beta-(4-hydroxy-3-methoxyphenyl)-3alpha-(hydroxymethyl)-2,3-dihydrobenzofuran-5-yl]-2,3-dihydro-4H-benzo[b]pyran-4-one] | – | – | – | – | did not affect (or had minor effects) | > 100 | – | – | – |
| CC(=O)CC(c1ccccc1)c1c(O)c2ccccc2oc1=O (stereo not drawn) [C1, 4-Hydroxy-3-(3-oxo-1-phenylbutyl)-2H-1-benzopyran-2-one] | 15 | best competitors | able to increase | 100 | did not affect (or had minor effects) | > 100 | – | – | – |
| CN1CCc2c(sc(/N=C/c3cccs3)c2C(N)=O)C1 [C9, 6-methyl-2-[(E)-(thiophen-2-ylmethylidene)amino]-4H,5H,6H,7H-thieno[2,3-c]pyridine-3-carboxamide] | – | – | able to increase | – | did not affect (or had minor effects) | – | 10 | > 100 | – |
| O=C1OC(c2c(O)c3ccccc3oc2=O)c2ccccc21 (stereo not drawn) [C14, 4-hydroxy-3-(3-oxo-1,3-dihydroisobenzofuran-1-yl)-2H-chromen-2-one] | – | – | – | – | – | 10 | – | – | – |
| CCCCOc1ccc(C2=N/C(=C\c3cc(OC)c(OC)cc3OC)C(=O)O2)cc1 [C10, (4Z)-2-(4-butoxyphenyl)-4-[(2,4,5-trimethoxyphenyl)methylidene]-4,5-dihydro-1,3-oxazol-5-one] | 30 | best competitors | – | – | did not affect (or had minor effects) | – | – | – | Little |
| NCc1ccccc1CC(=O)N[C@@H]1C(=O)N2C(C(=O)O)=C(CSc3nnnn3CC(=O)O)CS[C@H]12 [C29, (6R,7R)-7-[2-[2-(Aminomethyl)phenyl]acetamido]-3-[1-(carboxymethyl)-1H-tetrazol-5-ylsulfanylmethyl]-8-oxo-5-thia-1-azabicyclo[4.2.0]-2-octene-2-carboxylic acid] | 35 | best competitors | – | – | did not affect (or had minor effects) | > 100 | – | – | – |
| O=C(CCc1ccc(O)cc1)c1c(O)cc(O)cc1O[C@@H]1O[C@H](CO)[C@@H](O)[C@H](O)[C@H]1O [C16, 1-(2,4-dihydroxy-6-{[(2S,3R,4S,5S,6R)-3,4,5-trihydroxy-6-(hydroxymethyl)oxan-2-yl]oxy}phenyl)-3-(4-hydroxyphenyl)propan-1-one] | – | – | – | – | did not affect (or had minor effects) | > 100 | – | – | – |
| O=C(O)Cc1nn(Cc2nc3cc(C(F)(F)F)ccc3s2)c(=O)c2ccccc12 [C18, 2-[4-Oxo-3-[5-(trifluoromethyl)benzothiazol-2-ylmethyl]-3,4-dihydrophthalazin-1-yl]acetic acid] | – | – | – | – | did not affect (or had minor effects) | – | – | – | Little |
| NC(=O)[C@@H]1CCCN1C(=O)[C@H](Cc1cnc[nH]1)NC(=O)[C@@H]1CCC(=O)N1 [C21, (2S)-N-[(2S)-1-[(2S)-2-carbamoylpyrrolidin-1-yl]-3-(1H-imidazol-5-yl)-1-oxopropan-2-yl]-5-oxopyrrolidine-2-carboxamide] | – | – | – | – | did not affect (or had minor effects) | > 100 | – | – | – |
| Cc1c(Cc2c(Cl)cccc2Cl)c(=O)oc2cc(OCC(=O)OCC(=O)c3ccc(Cl)cc3)ccc12 [C12, 2-(4-chlorophenyl)-2-oxoethyl 2-{[3-(2,6-dichlorobenzyl)-4-methyl-2-oxo-2H-chromen-7-yl]oxy}acetate] | 23 | best competitors | – | – | did not affect (or had minor effects) | – | – | – | Little |
| NS(=O)(=O)Oc1ccc2c3c(c(=O)oc2c1)CCCCC3 [C3, Sulfamic acid 6-oxo-6,7,8,9,10,11-hexahydrocyclohepta[c]-1-benzopyran-3-yl ester] | – | – | – | – | – | 10 | – | – | – |
| CC(=O)CC(c1ccc([N+](=O)[O-])cc1)c1c(O)c2ccccc2oc1=O (stereo not drawn) [C5, 4-Hydroxy-3-[1-(4-nitrophenyl)-3-oxobutyl]-2H-1-benzopyran-2-one] | – | – | – | – | did not affect (or had minor effects) | > 100 | – | – | – |
| COc1ccc(-c2coc3cc(O[C@@H]4O[C@H](CO)[C@@H](O)[C@H](O)[C@H]4O)ccc3c2=O)cc1 [C15, 3-(4-methoxyphenyl)-7-{[(2S,3R,4S,5S,6R)-3,4,5-trihydroxy-6-(hydroxymethyl)oxan-2-yl]oxy}-4H-chromen-4-one] | – | – | able to increase | 5 | did not affect (or had minor effects) | – | – | – | Little |
| COc1cc(CNC(=O)CCCC/C=C/C(C)C)ccc1O [C6, N-(4-Hydroxy-3-methoxybenzyl)-8-methyl-6(E)-nonenamide 8-Methyl-N-vanillyl-trans-6-nonenamide] | 20 | best competitors | – | – | did not affect (or had minor effects) | > 100 | – | – | – |
| O=C1C2C3c4ccccc4C(c4ccccc43)C2C(=O)N1C(CO)(CO)CO [C8, (9R,10S,11S,15R)-13-(1,3-dihydroxy-2-(hydroxymethyl)propan-2-yl)-10,11-dihydro-9H-9,10-[3,4]epipyrroloanthracene-12,14(13H,15H) dione] | – | – | able to increase | 10 | did not affect (or had minor effects) | > 100 | – | – | – |
| C[C@H]1[C@H](NC(=O)C(=NOC(C)(C)C(=O)O)c2csc(N)n2)C(=O)N1S(=O)(=O)O (stereo in doubt) [C28, 2-[(Z)-[1-(2-amino-1,3-thiazol-4-yl)-2-[[(2S,3S)-2-methyl-4-oxo-1-sulfoazetidin-3-yl]amino]-2-oxoethylidene]amino]oxy-2-methylpropanoic acid] | 15 | – | able to increase | 1 | did not affect (or had minor effects) | – | – | – | – |
